Patent US20090197800A1, “Insulin Receptor Binding Peptides with Non-Insulin Gene Activation Profiles and Uses Thereof” (Novo Nordisk A/S, priority 2004, published 2009)
Ends that are not written are not given here.

Key:
human SGBS adipocytes = experiment: cDNA microarray analysis of total RNA from SGBS adipocytes treated with S597 or human insulin; format: cell-based; settings: 30 nM, 18 hours, vs vehicle
Method: To compare the transcriptional effects of human insulin (HI) and an exemplary IRBP, IRBP S597, cDNA microarray analyses were performed on total RNA from human SGBS adipocytes treated with S597 (30 nM) or human insulin (30 nM) for 18 hours. The microarray hybridizations were carried out as dual color (Cy3/Cy5) hybridizations comparing vehicle treatments to insulin or S597 treatments. Three individual RNA samples from vehicle, S597, and insulin treated cells were compared, and all hybridizations were repeated with reversed dye combination (e.g. vehicle (Cy3) vs. S597 (Cy5) repeated as vehicle (Cy5) vs. S597 (Cy3)). The specific steps employed in this experimental analysis of the effects of HI versus IRBP S597 are described in the following paragraphs.
(§1) A human preadipocyte cell strain derived from subcutaneous adipose tissue of an infant with Simpson-Golabi-Behmel syndrome (SGBS) was plated out in 6 well plates and grown to confluence in DMEM/F12 medium (Gibco) containing 1% biotin, 1% panthothenic acid, 1% penicillin (10000 U)/streptomycin (10000 U), and 10% Fetal bovine serum (Gibco-Invitrogen, Carlsbad Calif. (USA)—“Gibco”). Differentiation of SGBS preadipocytes into adipocytes was induced by adding DMEM/F12 medium (Gibco) containing 1% biotin, 1% panthothenic acid, 1% penicillin (10,000 U)/streptomycin (10,000 U), 100 nM cortisol, […] triiodothyronine, 20 nM insulin, 250 nM dexamethasone (first 6 days), 500 μM IBMX (first 6 days), 2 μM rosiglitazone (first 3 days) and letting cells differentiate for 14 days.
(§2) Before stimulation with insulin and IRBP S597 the differentiated adipocytes were cultured in DMEM/F12 medium (Gibco) containing 1% biotin, 1% panthothenic acid, 1% penicillin (10,000 U)/streptomycin (10,000 U), 100 nM cortisol, and […] triiodothyronine for 2 days. Insulin and S597 (1, 3, 10, 30, 100 nM) were separately added to cells in DMEM/F12 medium (Gibco) containing 1% biotin, 1% panthothenic acid, 1% penicillin (10,000 U)/streptomycin (10,000 U), 100 nM cortisol, 200 pM triiodothyronine, and 0.1% BSA. Following stimulation for 18 h (18 hours), the cells were washed twice in PBS and 1.3 ml SV RNA-lysis buffer (Promega, Madison, Wis.) was added to each well.
(§3) Total RNA was isolated and DNase treated using SV96 total RNA isolation system (Promega, Madison, Wis.) following manufacturer's instructions.
Incyte Easy-To-Spot™ PCR-products (ETS1220 comprising ˜9000 human clones) (Amersham Biosciences) dissolved in 50% DMSO were spotted on to Corning Ultra Gaps slides (Corning Inc., Corning, N.Y.) at 55% relative humidity using the Molecular Dynamics Gen. III microarray spotter (Amersham Biosciences, Buckinghamshire, UK). All slides were baked at 80° C. for 4 h. Approximately 250 ng of total RNA from cells treated with vehicle, human insulin (30 nM) and S597 (30 nM) were used for synthesis of complementary RNA (amplified RNA (aRNA)) using Amino-allyl MessageAmp™ aRNA kit (Ambion, Austin, Tex.). Amino-allyl cDNA was synthesized from 1.5 μg of each RNA-amplification. The aRNA was incubated with random primer at 70° C. for 10 min. and subsequently chilled on ice for 30 sec. The primer annealed RNA was incubated with reaction mixture (1× Superscript II buffer (Life Technologies, Taastrup, Denmark), 10 mM DTT, 200 μM dGAT(−TP) 100 μM dCTP, 100 μM Cy-3/Cy-5-dCTP (Amersham Biosciences), and 200 units of Superscript II reverse transcriptase (Life Technologies, Taastrup, Denmark) at 42° C. for 2 h in a final volume of 20 μl. The RNA template was removed by alkaline denaturation (incubation with 2 μl 2.5 M NaOH at 37° C. for 15 min.). Amino-allyl labeled probes were purified using a Qiagen PCR purification kit (Qiagen). The amino-allyl cDNA was resuspended in 0.1 M NaHCO3 pH 9.0 and coupled to Cy3/Cy5 NHS-ester (Amersham Biosciences) for 1 h at RT in the dark. Unreacted ester groups were quenched by addition of hydroxylamine. Cy3- and Cy5-labeled cDNA was purified using Qiagen PCR purification kit (Qiagen). […]

SGBS adipocytes = experiment: quantitative RT-PCR of cholesterol biosynthesis genes in SGBS adipocytes; format: cell-based, human; settings: 18 h; for expression level of HMG-CoA synthase 1 (direction of regulation) / expression level of mevalonate (diphospho) decarboxylase (direction of regulation): quantitative RT-PCR, dose dependent, SGBS adipocytes, FIG. 2
Method: as §1, §2, §3
(§4) cDNA was prepared from 100 ng of total RNA from each of the treatments (n=3) using random primers and TaqMan® Reverse (Applied Biosystems, Foster City, Calif. (USA)).
(§5) Transcription reagents were used/applied according to the manufacturer's instructions. Quantitative PCR was performed on each of the cDNA samples (10-fold dilutions of cDNA) using TaqMan® PCR core reagents (Applied Biosystems) on an ABI PRISM® 7000 Sequence Detection System (Applied Biosystems). Primers and FAM-labeled-probes for human and rat HMG-CoA reductase (HMGCR), mevalonate (diphospho) decarboxylase (MVD), HMG-CoA synthase 1 (HMGCS1), 18S rRNA, rat fatty acid synthase (FAS), and rat glucose-6-phosphate catalytic subunit (G6PC) were ordered as Assays-on-Demand (Applied Biosystems).
(§6) Probe sequences for these assays were as follows: HMGCR (human AC-[…] (assay Hs00168352_m1) (SEQ ID NO: 34), rat GCAC-[…] (assay Rn00565598_m1) (SEQ ID NO: 35)), MVD (human […] (assay Hs00159403_m1) (SEQ ID NO: 36), rat […] (assay Rn00579216_m1) (SEQ ID NO: 37)), HMGCS1 (human […] (assay Hs00266810_m1) (SEQ ID NO: 38), rat […] (assay Rn00568579_m1) (SEQ ID NO: 39)), 18S rRNA ([…]; assay HS99999901_s1) (SEQ ID NO: 40), FAS (rat […] (assay Rn00569117_m1) (SEQ ID NO: 41)), and G6PC (rat […] (assay Rn00565347_m1) (SEQ ID NO: 42)). Data were analyzed using ABI Prism 7000 SDS software (version 1.0; Applied Biosystems), and expression levels for HMGCR, MVD, HMGCS1, FAS, and were normalized to the 18S rRNA levels.

primary rat hepatocytes = experiment: quantitative RT-PCR of mRNA expression in primary rat hepatocytes; format: cell-based; settings: 18 h; for effect on HMGCR mRNA level / effect on HMGCS1 mRNA level / effect on MVD mRNA level: 5 doses (0.1, 0.3, 1, 10, 100 nM), FIG. 3; for mRNA expression of fatty acid synthase (direction of regulation) / mRNA expression of glucose-6-phosphate catalytic subunit (direction of regulation): FIG. 4
Method: Male Wistar rats (˜200 g) were anaesthetized with a freshly prepared mixture (1:1) of Hyp-norn (0.05 mg/ml fentalyl/2.5 mg/ml fluabizone) and Dormicum (1.25 mg/ml midazolam) administered subcutaneously (1 ml/kg). Hepatocytes were isolated from rats fed ad libitum by a two-step perfusion technique essentially as described by Seglen, Biochem. J. (1999) 342 (545-550). Cell viability, assessed by Trypan Blue exclusion, was consistently greater than 80%. Cells were plated on to collagen-coated six-well plates in basal medium (Medium 199, 5.5 mM glucose supplemented 100 nM decadron, 1% penicillin (10,000 U)/streptomycin (10,000 U), and 1 nM insulin) with 4% fetal calf serum at a cell density of 1.2*10^6 cells/well. The medium was replaced 1 h after initial plating in order to remove dead cells. […] Following stimulation for 18 h, the cells were washed twice in PBS and 1.3 ml SV RNA-lysis buffer (Promega, Madison, Wis.) were added to each well.
as §3, §4, §5, §6

[1] = quantitative RT-PCR, 1, 3, 10, 30, 100 nM, normalized to 18S, FIG. 1

Substance | HMG-CoA reductase (HMGCR) gene upregulation (human SGBS adipocytes) | HMG-CoA synthase 1 (HMGCS1) gene upregulation (human SGBS adipocytes) | mevalonate (diphospho) decarboxylase (MVD) gene upregulation (human SGBS adipocytes) | dose dependant upregulation of HMG-CoA reductase mRNA (SGBS adipocytes; [1]) | expression level of HMG-CoA synthase 1 (direction of regulation) (SGBS adipocytes) | expression level of mevalonate (diphospho) decarboxylase (direction of regulation) (SGBS adipocytes) | effect on HMGCR mRNA level (primary rat hepatocytes) | effect on HMGCS1 mRNA level (primary rat hepatocytes) | effect on MVD mRNA level (primary rat hepatocytes) | mRNA expression of fatty acid synthase (direction of regulation) (primary rat hepatocytes) | mRNA expression of glucose-6-phosphate catalytic subunit (direction of regulation) (primary rat hepatocytes) | HMG-CoA reductase (HMGCR) gene downregulation (human SGBS adipocytes) | HMG-CoA synthase 1 (HMGCS1) gene downregulation (human SGBS adipocytes) | mevalonate (diphospho) decarboxylase (MVD) gene downregulation (human SGBS adipocytes) | dose dependant downregulation of HMG-CoA reductase mRNA (SGBS adipocytes; [1])
human insulin | 2.3 fold | 2.0 fold | 2.1 fold | ~3 fold up | upregulated | upregulated | clear upregulating effect | clear upregulating effect | clear upregulating effect | upregulation | downregulation | – | – | – | –
Ac-SLEEEWAQIECEVYGRGCPSESFYDWFERQL (cysteine pairing not given here) [S597] | – | – | – | – | downregulated | downregulated | no significant changes | no significant changes | no significant changes | upregulation | downregulation | 2.1 fold | 1.4 fold | 2.5 fold | ~2 fold down
